From ChEMBL document CHEMBL3286240, “Inhibition of Enterococcus faecalis biofilm formation by highly active lactones and lactams analogues of rubrolides” (Eur J Med Chem, 2014)
In brackets after ≈: the same amount, converted by molar mass.

Key:
Enterococcus faecalis [1] = test: Antimicrobial activity against Enterococcus faecalis assessed as inhibition of biofilm formation after 20 hrs by crystal violet staining analysis; assay type: functional, organism-based
Enterococcus faecalis [2] = test: Antimicrobial activity against Enterococcus faecalis assessed as bacterial growth at 43.8 ug/ml after 20 hrs by microtiter plate assay; assay type: functional
Enterococcus faecalis [3] = test: Antimicrobial activity against Enterococcus faecalis assessed as bacterial growth at 87.5 ug/ml after 20 hrs by microtiter plate assay; assay type: functional
Enterococcus faecalis [4] = test: Antimicrobial activity against Enterococcus faecalis assessed as bacterial growth at 10.9 ug/ml after 20 hrs by microtiter plate assay; assay type: functional
Enterococcus faecalis [5] = test: Antimicrobial activity against Enterococcus faecalis assessed as bacterial growth at 2.73 ug/ml after 20 hrs by microtiter plate assay; assay type: functional
Enterococcus faecalis [6] = test: Antimicrobial activity against Enterococcus faecalis assessed as bacterial growth at 0.17 ug/ml after 20 hrs by microtiter plate assay; assay type: functional
Enterococcus faecalis [7] = test: Antimicrobial activity against Enterococcus faecalis assessed as bacterial growth at 0.34 ug/ml after 20 hrs by microtiter plate assay; assay type: functional
Enterococcus faecalis [8] = test: Antimicrobial activity against Enterococcus faecalis assessed as bacterial growth at 21.9 ug/ml after 20 hrs by microtiter plate assay; assay type: functional
Enterococcus faecalis [9] = test: Antimicrobial activity against Enterococcus faecalis assessed as bacterial growth at 5.5 ug/ml after 20 hrs by microtiter plate assay; assay type: functional
Enterococcus faecalis [10] = test: Antimicrobial activity against Enterococcus faecalis assessed as bacterial growth at 1.37 ug/ml after 20 hrs by microtiter plate assay; assay type: functional
Enterococcus faecalis [11] = test: Antimicrobial activity against Enterococcus faecalis assessed as bacterial growth at 0.68 ug/ml after 20 hrs by microtiter plate assay; assay type: functional

Structure (SMILES) | IC50 (Enterococcus faecalis [1]) | Activity (Enterococcus faecalis [2]) | Activity (Enterococcus faecalis [3]) | Activity (Enterococcus faecalis [4]) | Activity (Enterococcus faecalis [5]) | Activity (Enterococcus faecalis [6]) | Activity (Enterococcus faecalis [7]) | Activity (Enterococcus faecalis [8]) | Activity (Enterococcus faecalis [9]) | Activity (Enterococcus faecalis [10]) | Activity (Enterococcus faecalis [11])
COc1ccc(Br)cc1C1=C(Br)C(=O)N(CC(C)C)/C1=C/c1ccc(Br)cc1 | 3.35 µg/mL (≈ 5.88 µM) | 22.5% | 57.1% | 10.6% | 20.2% | 0.8% | -4.4% | 18.1% | 9.6% | 15.8% | 1.8%
COc1ccc(Br)cc1C1=C(Br)C(=O)N(CC(C)C)/C1=C/c1cccc(Cl)c1 | 3.46 µg/mL (≈ 6.58 µM) | 75.5% | 98.2% | 57.3% | 42.5% | 16.1% | 20.1% | 67.3% | 48.8% | 33% | 23.5%
COc1ccc(Br)cc1C1=C(Br)C(=O)O/C1=C\c1ccc(Br)cc1 | 18.7 µg/mL (≈ 36.3 µM) | 22.3% | 35.9% | 19.9% | 1.1% | 0.8% | -0.3% | 9.6% | 9.6% | 8.8% | 10.4%
COc1ccc(C)cc1C1=C(Br)C(=O)N(CC(C)C)/C1=C\c1ccccc1Cl | 1.09 µg/mL (≈ 2.37 µM) | 62.1% | 95.3% | 45.1% | 33% | -4.2% | -7.4% | 52.2% | 41.9% | 24.6% | 6.9%
COc1cccc(CC2(O)C(c3cc(Cl)ccc3OC)=C(Br)C(=O)N2CC(C)C)c1 (stereo not given) | > 87.5 µg/mL | 38.2% | 60.6% | 19.8% | 9.5% | -4% | 1% | 21.6% | -8% | 3% | 4%
